These results are taken from US20210371374A1, “METAL DI-AMINO ACID CHELATES OR METAL TRI-AMINO ACID CHELATES” (Balchem Corporation, priority 2020, published 2021).

The test system of data set [1] is Caco-2 cells. Put plainly: Cellular uptake in Caco-2 cells, BioVision colorimetric magnesium uptake assay kit. The data set is classed as in vitro ADME. The following applies: compared with other magnesium complexes. The text has this: 18 MΩ Ultrapure water was obtained in-house.
Data set [2] in a line: Stability of Mg(G3) in solution via 1H NMR. The data set is classed as physicochemical. Conditions: 1H NMR in D2O; periods up to 72 hrs. The text has this:
At 72 hrs, an observable upfield shift occurs, which may be due to isomer formation. There is no observable change in proton integration. NMR taken in D2O.

Peptide text beside a SMILES is read from it.

Turning to magnesium diglycine [MgG2], the “cellular uptake in CaCo-2 cell line (FIG. 72)” value in data set [1] is listed as “relatively linear uptake”.
For `NCC(=O)NCC(=O)NCC(=O)[O-].[Mg+2].[OH-]` [Mg(G3), magnesium 2-[[2-[(2-aminoacetyl)amino]acetyl]amino]acetic acid chelate] (H-Gly-Gly-Gly-OH), the stability in solution result in data set [2] is listed as “considerable stability”.
For `NCC(=O)[O-].NCC(=O)[O-].[Mg+2]` [MgBG, magnesium bisglycinate, reference compound], the “cellular uptake in CaCo-2 cell line (FIG. 72)” value in data set [1] is reported as “significantly less cellular uptake than Mg(G3)”.
